{"source": "patent US11471467B2", "about": "“Ruthenium complexes for treating cancer which comprises cancer stem cells” (UNIVERSIDADE DE SANTIAGO DE COMPOSTELA, priority 2016, dated 2022)", "key": {"[1]": {"test_system": "Panc185 and PancA6L cells", "assay": "ToxiLight BioAssay cytotoxicity (adenylate kinase release)", "assay_type": "cell-based", "experimental": "FIG. 20. Cytotoxic effects of RuH2O on PDAC cultures. Relative cell death was determined in adherent cultures (low in CSC) and spheres (rich in CSC) of Panc185 (A) and PancA6L (B) at 24, 48, and 72 hours after treatment with the indicated doses of RuH2O.\nIt was then studied if the […] c-MYC expression and the phenotype and transcriptional changes observed were cytotoxic. For this analysis, the ToxiLight™ BioAssay kit, a bioluminescent, non-destructive cytolysis assay kit designed for measuring the adenylate kinase (AK) enzyme released from damaged cells (FIG. 20), was used. Adherent cultures (low in CSC) and cultured spheres (rich in CSC) were treated with increasing doses of RuH2O and cytotoxicity was measured 24, 48, and 72 hours after treatment. In adherent cultures and in both assayed cell lines, toxicity was only observed at 72 hours (3-fold increase in dead cells) when the cells were treated with 250 μM of RuH2O."}, "[2]": {"test_system": "c-MYC", "assay": "c-MYC protein expression by Western blot in PDAC cells", "assay_type": "cell-based", "experimental": "FIG. 17. Effects of complex 2 (RuH2O) on pancreatic ductal adenocarcinoma (PDAC) cells.\nFIG. 18. […] Western blot analysis of the expression of c-MYC in cultures 24 and 48 h after treatment with RuH2O.\n(§1) On one hand, the inventors analyzed if complex 2 may increase c-MYC expression in pancreatic CSCs, and on the other hand, if the increase in c-MYC expression would negatively affect the CSC phenotype, for example, CSC self-renewal capacity. […] After having achieved a substantial increase in c-MYC expression, it was then analyzed if the CSC self-renewal capacity was affected. To that end, briefly the PDAC cells were pre-treated twice with complex 2 (RuH2O) at a concentration of 100 and 250 μM before establishing sphere cultures in […] as described in Cioffi M (Cioffi M et al. 2015 Gut 12: 1936-1948). The spheres were again treated on day 4 after sphere formation."}, "[3]": {"test_system": "guanosine monophosphate (GMP)", "assay": "GMP binding (metallation) assay, HPLC", "settings": "complex 250 μM, GMP 750 μM, 10 mM phosphate buffer pH 7.5, 100 mM NaCl", "procedure": "High-performance liquid chromatography (HPLC) was carried out using Agilent 1100 liquid chromatography-mass spectrometer equipment. Analytical HPLC was carried out using a Phenomenex Luna-C18 reversed-phase analytical column (10×250 mm, 5 μm), 1 mL/min, with different gradients (see below). […] Electrospray ionization mass spectrometry (ESI/MS) was performed with an Agilent 1100 Series LC/MSD VL G1956A model in positive polarity mode.\nFirst, guanosine monophosphate (GMP) metallating capacity of complex 1 was studied. To that end, complex 1 (250 μM) was mixed with 3 equivalents of GMP (750 μM) in 10 mM phosphate buffer (pH=7.5) and 100 mM NaCl.\nTo confirm that GMP metallation is completely orthogonal, competitive experiments were carried out with the other three nucleotides (AMP, CMP, and TMP). Specifically, complex 1 (250 μM) was mixed with GMP (3 equiv, 750 μM), AMP (3 equiv, 750 μM), TMP (3 equiv, 750 μM), and CMP (3 equiv, 750 μM) in 10 mM phosphate buffer (pH=7.5) and 100 mM NaCl.\nTo that end, complex 1 (250 μM) was mixed with GMP (3 equiv, 750 μM) in the presence of H-Lys(Boc)-OH (3 equiv, 750 μM) or Ac-Cys-OH (3 equiv, 750 μM) in 10 mM phosphate buffer (pH=7.5) and 100 mM NaCl.\nComplex 4 (250 μM) was mixed with 3 equivalents of GMP (750 μM) in 10 mM phosphate buffer (pH=7.5) and 100 mM NaCl."}, "[4]": {"test_system": "Panc185 and PancA6L cells", "assay": "Clonogenicity of PDAC cells", "assay_type": "cell-based", "settings": "adherent cultures treated 48 hours with 100 or 250 μM, 10 days in culture", "experimental": "FIG. 25. Clonogenicity of PDAC cells after treatment with RuH2O. (Top) Light micrographs of Panc185 and PancA6L colonies formed after 10 days in culture. The colonies were visualized with crystal violet staining. (Bottom) Colony efficiency quantification. The colonies were lysed in PBS-1% Triton-X and color intensity was measured with a plate reader.\n(§2) The trypsinized cells were then: 1) placed in a plate at a low confluence to evaluate their clonogenicity (FIG. 25); 2) repeatedly cultured in ultra-low adherent plates in serum-free DMEM/F12 supplemented with B27 for intervals of 7 days to evaluate sphere formation capacity over multiple generations (FIG. 26); and 3) subcutaneously injected into NOD-SCID mice to check their tumorigenicity as described above (FIG. 27)."}, "[5]": {"test_system": "PDAC cancer stem cells", "assay": "Sphere formation (self-renewal) of PDAC cancer stem cells", "assay_type": "cell-based", "settings": "for sphere formation capacity (self-renewal): PDAC cells pre-treated twice with 100 and 250 μM, treated again on day 4, against control cultures", "experimental": "as §1\nIt was then evaluated if ruthenium complex 2 may negatively affect CSC phenotypes, such as self-renewal and tumorigenicity. […] During these 7 days, the samples were treated again with 250 μM of RuH2O on days 1, 3, and 5 after initiation of the spheres. […] The CSC spheres were smaller and less abundant in the RuH2O group.\nas §2"}, "[6]": {"test_system": "Panc185 and PancA6L cells", "assay": "Annexin V / DAPI staining of PDAC cells", "assay_type": "cell-based", "experimental": "FIG. 21. Cytotoxic effects of RuH2O on PDAC sphere cultures. Light micrographs and annexin-V staining of Panc185 and PancA6L cells after 72 hours of treatment with 100 μM of RuH2O.\nFIG. 24. Induction of apoptosis in PDAC cells. Annexin-V staining of PDAC cells treated for 48 hours with 100 or 250 μM of RuH2O.\nThe effect of 100 μM of RuH2O on cultures rich in CSC was confirmed at the microscopic level and by measuring annexin V staining. […] Cell viability determined by the percentage of DAPI negative cells dropped by 50%.\nTo rule out the possibility that the effects mentioned above arise as a result of unspecific cytotoxic effects, adherent cultures (low in CSC) were treated for 48 hours with a single dose of RuH2O (100 or 250 μM) and their subsequent clonogenicity, self-renewal, and tumorigenicity was checked. […] The treated and untreated cells were then trypsinized and the percentage of apoptotic cells was analyzed."}}}
{"substance": "[Ru(terpy) (bpy)H2O]^2+ [complex 2]", "values": [{"measurement": "increase in dead cells", "setting": "[1]; adherent cultures (low in CSC), both cell lines, 250 μM, 72 hours", "result": 3, "unit": "fold"}, {"measurement": "toxicity (ToxiLight)", "setting": "[1]; adherent cultures (low in CSC), single dose 100 or 250 μM, 48 hours", "result": "no toxicity was observed"}, {"measurement": "cell death", "setting": "[1]; spherical cultures (rich in CSC), 100 μM", "result": "induced cell death"}, {"measurement": "c-MYC protein expression", "setting": "[2]; PDAC cells, 100 and 250 μM, 6, 12 or 24 hours", "result": "expression of c-MYC increased after treatment"}, {"measurement": "c-MYC protein expression", "setting": "[2]; PDAC cells, 100 and 250 μM, 6, 12 or 24 hours, listed as Complex 2", "result": "increases the expression of c-MYC"}, {"measurement": "c-MYC protein expression", "setting": "[2]; Panc185 and PancA6L cells, 100 μM, 24 hours after treatment", "result": "increased c-MYC protein expression"}, {"measurement": "c-MYC protein levels", "setting": "[2]; Panc185 and PancA6L cells, 48 hours after treatment", "result": "significant decrease in c-MYC protein levels"}, {"measurement": "GMP metallation, conversion to monoadduct 3", "setting": "[3]; 30 min at room temperature in the dark", "result": 63, "unit": "%"}, {"measurement": "GMP metallation, conversion to monoadduct 3", "setting": "[3]; 30 min irradiation at 455 nm", "result": "complete conversion"}, {"measurement": "clonogenicity", "setting": "[4]", "result": "prevents clonogenicity, self-regeneration, and tumorigenicity"}, {"measurement": "sphere formation capacity (self-renewal)", "setting": "[5]", "result": "significant, dose-dependent reduction in the sphere formation capacity"}, {"measurement": "sphere formation capacity (self-renewal)", "setting": "[5]; listed as Complex 2", "result": "reduces the self-renewal capacity"}, {"measurement": "sphere formation capacity", "setting": "[5]; PDAC cells, 250 μM for 24 hours, again on days 1, 3 and 5, against control", "result": "significant reduction in the sphere formation capacity"}, {"measurement": "self-regeneration (sphere formation over multiple generations)", "setting": "[5]; adherent cultures treated 48 hours with 100 or 250 μM", "result": "prevents clonogenicity, self-regeneration, and tumorigenicity"}, {"measurement": "percentage of apoptotic cells", "setting": "[6]; adherent cultures, 100 or 250 μM, 48 hours", "result": "increase in the percentage of apoptotic cells was not observed"}, {"measurement": "appearance of spheres, annexin V staining", "setting": "[6]; spheres, 100 μM, 72 hours", "result": "visually smaller and apoptotic"}, {"measurement": "drop of cell viability (percentage of DAPI negative cells)", "setting": "[6]; spheres, 100 μM, 72 hours", "result": 50, "unit": "%"}]}
